Several values for one entry are separate records, joined by “and”; a condition that tells them apart may be missing. Equal values may be shown once. Read-outs that look alike come from different tables or passages of the source.
Assays:
[1] = target: T1, AR-LBD / TIF2 box III LXXLL peptide (Homo sapiens, UniProt P10275); experiment: AR-LBD::TIF2 Box III LXXLL peptide binding AlphaScreen assay
T1 construct: The pET28a-AR-LBD (622-919) construct; made in house
T1 sequence (P10275 622-919): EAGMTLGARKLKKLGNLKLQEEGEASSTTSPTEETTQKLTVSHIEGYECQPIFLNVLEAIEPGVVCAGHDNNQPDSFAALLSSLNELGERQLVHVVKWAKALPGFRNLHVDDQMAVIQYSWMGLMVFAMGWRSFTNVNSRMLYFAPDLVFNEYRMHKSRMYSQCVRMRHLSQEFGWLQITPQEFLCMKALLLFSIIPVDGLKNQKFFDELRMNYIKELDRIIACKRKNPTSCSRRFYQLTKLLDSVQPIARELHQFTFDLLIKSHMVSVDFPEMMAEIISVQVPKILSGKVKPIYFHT
Method: […] Biotinylated (Biotin-HN-[…]-CONH2; SEQ ID NO: 1) and non-biotinylated TIF2-box-III (738-756) peptide (H2N-[…]-CONH2; SEQ ID NO: 2) were synthesized by the Peptide & Peptoid Synthesis Facility, at the University of Pittsburgh Health Sciences Core Research Facilities. ALPHAScreen® streptavidin donor beads (SA-DB) and nickel chelate acceptor beads (Ni-AB) were purchased from Perkin Elmer (Waltham, MA). The assay was performed in 384-well white opaque plates (Greiner BioOne, #781080). […] 18 μL of the SA-DB bound biotinylated TIF2 peptide mixture was added to the assay plate before 5 μL of compounds were transferred into assay wells and 27 μL of the AlphaScreen® donor and acceptor B bead mixture was added to the plate. 32 wells containing 0.5% DMSO provided maximum controls and 32 wells containing a 500-fold excess of unlabeled TIF2-box-III (75 μM) were used as minimum controls. The combined head-protein-peptide-compound mixture was incubated for 1 h at room temperature in the dark, and then the RLU's were acquired at 520 nm after excitation at 680 nm on an EnVision® plate reader (Perkin Elmer, Waltham, MA) as described previously (Fancher et al., Assay Drug Dev Technol. 2019, 17:364-386).

[2] = GI50 given in Tables 4-6 (test not described); assay type: cell-based; conditions: cell line not stated
[3] = test system: PC-3, DU-145, LNCaP, C4-2, and 22Rv1 PC cell lines; experiment: Prostate cancer cell line growth inhibition assays, results stated across cell lines; assay type: cell-based; conditions: for GI50s against all 5 PCa cell lines: all 5 cell lines, 72 h; for Relative potency in AR positive versus AR negative PC cell lines: 72 h growth inhibition; for GI50s against the 3 AR+ PCa cell lines: LNCaP, C4-2, 22Rv1
Method: Prostate Cancer Cell Line Growth Inhibition Assays: The PC-3, DU-145, LNCaP, C4-2, and 22Rv1 PC cell line growth inhibition assays have been described previously (Fancher et al., Assay Drug Dev Technol. 2016, 14:453-477; Fancher et al., Assay Drug Dev Technol. 2019, 17:364-386). On day 1, each PC cell line was harvested, counted, and seeded into two 384-well assay plates, a time zero (T0) and a time 72 h (T72) plate. PC cell lines were all seeded at 1,000 cells per well in 45 μL of tissue culture media in uncoated white clear bottom 384-well assay plates (VWR, #82050-076) using a Matrix electronic multichannel pipette (Thermo Fisher Scientific, Waltham, MA) and cultured overnight at 37° C., 5% CO2, and 95% humidity. On day 2, 25 μL of the CellTiter-Glo® (CTG) (Promega Corporation, Madison, WI) detection reagent was dispensed into the wells of the TO assay plate using a Matrix electronic multichannel pipette, and the RLUs were captured on the SpectraMax® M5e (Molecular Devices LLC, Sunnyvale, CA) microtiter plate reader. Also on day 2, 5 μL of compounds were transferred into the test wells of the T72 384-well assay plates which were returned to the incubator for 72 h. Control wells received DMSO alone. On day 5, 25 μL of the CTG detection reagent was dispensed into the wells of the T72 assay plate using a Matrix electronic multichannel pipette, and the RLU's were captured on the SpectraMax® M5e microtiter plate reader platform.
For the 96-well AR-LBD H^3-DHT radioligand binding assay, eight minimum and maximum plate control wells were utilized to normalize the data. For the PC cell line growth inhibition assays the DMSO control data from the TO and T72 assay plates was used to assess the dynamic range of the T0 to T72 cell growth, and to calculate S:B ratios and Z′-factor coefficient statistics for the assay signal window (T0 to T72). To normalize the 72 h compound exposure PC growth inhibition data, the signals from the compound treated wells were processed and expressed as % of the T72 DMSO plate controls. IC50 and GI50 values for each of the bioassays were calculated using GraphPad Prism 9 software to plot and fit data to curves using the Sigmoidal dose response variable slope equation Y=Bottom+[Top-Bottom]/[1+10^(Log EC50−X)*HillSlope].

[4] = AlphaScreen, read-out: Inhibition DHT-induced TIF2 NR Box 3 LXXLL peptide binding to AR-LBD IC50
[5] = read-out: IC50 in TIF2 LXXLL-peptide AR-LBD binding assay (potency range in words)

SMILES | IC50 [1, 4] | IC50 [1, 5] | GI50s against all 5 PCa cell lines [3] | IC50 in TIF2 LXXLL-peptide AR-LBD binding assay (potency range in words) [1] | GI50s against the 3 AR+ PCa cell lines [3] | GI50s in AR negative cell lines ([3]; PC-3 and DU-145) | GI50s against 2 AR+ PCa cell lines ([3]; 2 AR+ cell lines, not named) | GI50s against 4 PCa cell lines ([3]; 4 cell lines, not named) | GI50 [2] | Relative potency in AR positive versus AR negative PC cell lines [3]
Cc1ccccc1-c1cc(O)c2c(c1)CN(c1nc(C(N)=O)cs1)CCO2 [Compound S1-1] | 21 to 83 µM and 12 µM | 10 to 100 µM | 29 to 70 µM |  |  |  |  |  | > 100 µM | 
Cc1nc(N)cc(N2CCOc3c(O)cc(-c4ccccc4C)cc3C2)n1 [Compound S1-2] | 21 to 83 µM |  |  | mid 44 μM |  |  |  |  | 51.9 µM | equipotent against all 5 PC cell lines
Cc1ccccc1-c1cc(O)c2c(c1)CN(c1nccs1)CCO2 [Compound S1-3] | 21 to 83 µM |  | 44 to 75 µM | mid 44 μM |  |  |  |  | > 100 µM | differential cytotoxicity in AR positive PC cell lines
Cc1ccccc1-c1cc(O)c2c(c1)CN(c1cc(N)ncn1)CCO2 [Compound S1-4] |  |  |  |  |  |  |  |  | > 100 µM | equipotent against all 5 PC cell lines
COc1cc(-c2ccc(C)s2)cc2c1OCCN(c1nc(C(N)=O)cs1)C2 [Compound S1-5] | > 100 µM |  | > 100 µM |  |  |  |  |  | > 100 µM | 
Cc1nsc(NC(=O)N2CCC(Sc3ccccc3C)CC2)n1 [Compound S2-6] | 49.5 µM | 10 to 100 µM |  |  | 14 to 19 µM |  |  |  | > 100 µM | 
Cc1nsc(NC(=O)N2CCC(Cn3ccnc3)CC2)n1 [Compound S2-7] |  |  | 30 to 94 µM |  | 30 to 64 µM | ~94 µM |  |  | > 100 µM | 
Cc1c(-c2ccccc2F)[nH]c2ccc(CNC(=O)CCc3cnccn3)cc12 [Compound S3-12] | > 100 µM |  |  |  |  |  |  |  | > 100 µM | roughly equipotent against all 5 PC cell lines
CNC(=O)c1ccc(-c2c[nH]c3c(C)cccc23)cc1 [Compound S3-21] | > 100 µM |  |  |  |  |  |  | 13 to 55 µM | > 100 µM | differential cytotoxicity in AR positive PC cell lines

Further lines, with some results ahead:

IC50 [1, 4] | IC50 [1, 5] | GI50s against all 5 PCa cell lines [3] | IC50 in TIF2 LXXLL-peptide AR-LBD binding assay (potency range in words) [1] | GI50s against the 3 AR+ PCa cell lines [3] | GI50s in AR negative cell lines ([3]; PC-3 and DU-145) | GI50s against 2 AR+ PCa cell lines ([3]; 2 AR+ cell lines, not named) | GI50s against 4 PCa cell lines ([3]; 4 cell lines, not named) | SMILES | GI50 [2] | Relative potency in AR positive versus AR negative PC cell lines [3]
50 µM and 45.2 µM | 10 to 100 µM |  |  |  |  |  |  | Cc1c(-c2ccccc2F)[nH]c2ccc(CNC(=O)CCc3cn[nH]c3)cc12 [Compound S3-11] | > 100 µM | differential cytotoxicity in AR positive PC cell lines
92 µM | 10 to 100 µM |  |  |  |  | 68 to 70 µM |  | CC(=O)NCCC(=O)NCc1ccc2[nH]c(-c3ccccc3F)c(C)c2c1 [Compound S3-13] | > 100 µM | roughly equipotent against all 5 PC cell lines
 | 10 to 100 µM |  |  | 30 to 100 µM |  |  |  | Cc1c(-c2ccccc2F)[nH]c2ccc(CNC(=O)c3ccc(CO)o3)cc12 [Compound S3-14] | > 100 µM | differential cytotoxicity in AR positive PC cell lines
 | 10 to 100 µM |  |  |  |  |  |  | Cc1c(-c2ccc(F)cc2)[nH]c2ccc(CNC(=O)c3ccc(CO)o3)cc12 [Compound S3-15] | > 100 µM | roughly equipotent against all 5 PC cell lines
 | 1 to 10 µM |  |  |  |  |  |  | Cc1cccc2c(-c3ccc(O)c(F)c3)c[nH]c12 [Compound S3-17] | 99 µM | roughly equipotent against all 5 PC cell lines
